# Source: US9457033B2, “Steroid alkaloids and uses thereof as antimicrobial agents against electron transport-deficient microbes and as potentiators for antimicrobial agents against pathogenic bacteria” (priority 2011, dated 2016)
# Tests used:
# [1] = test system: S. aureus ATCC 29213; test: MIC, microdilution in BHI 48 h (Examples 1, 3); type: cell-based, Staphylococcus aureus
# [2] = test system: S. aureus Newbould (normal strain); test: MIC, microdilution in BHI 48 h; type: cell-based, Staphylococcus aureus
# [3] = test system: S. aureus SCV NewbouldΔhemB; test: MIC, microdilution in BHI 48 h; type: cell-based, Staphylococcus aureus
# [4] = test system: S. aureus CF07-L (normal strain); test: MIC, microdilution in BHI 48 h (Examples 1, 3); type: cell-based, Staphylococcus aureus
# [5] = test system: S. aureus SCV CF07-S; test: MIC, microdilution in BHI 48 h (Examples 1, 3); type: cell-based, Staphylococcus aureus
# [6] = test system: S. aureus CF1A-L (normal strain); test: MIC, microdilution in BHI 48 h; type: cell-based, Staphylococcus aureus
# [7] = test system: S. aureus SCV CF1D-S; test: MIC, microdilution in BHI 48 h; type: cell-based, Staphylococcus aureus
# [8] = test system: S. aureus SCVs (NewbouldΔhemB, CF07-S and CF1D-S); test: MIC, microdilution in BHI 48 h, summary for SCVs; type: cell-based, Staphylococcus aureus; conditions: all SCVs of Table 1
# [9] = test system: S. aureus ATCC 29213; test: MICs of control antibiotics for macromolecular biosynthesis assays; type: cell-based; conditions: Staphylococcus aureus, ATCC29213
# [10] = test system: protein, DNA, RNA and cell wall peptidoglycan biosynthesis in ATCC 29213; test: Macromolecular biosynthesis assay, incorporation of radiolabeled precursors; type: cell-based, Staphylococcus aureus; conditions: control antibiotics at approximately 4×MIC; FIG. 3A
# [11] = test system: S. aureus ATCC 29213; test: MIC, microdilution in CAMHB 24 h, with or without tomatidine/compound; type: cell-based, Staphylococcus aureus; conditions: for MIC: Staphylococcus aureus
# [12] = test system: S. aureus 8325-4; test: MIC, microdilution in CAMHB 24 h; type: cell-based, Staphylococcus aureus; conditions: Staphylococcus aureus, 83254
# [13] = test system: S. aureus Newbould; test: MIC, microdilution in CAMHB 24 h; type: cell-based, Staphylococcus aureus; conditions: Staphylococcus aureus
# [14] = test system: S. aureus SHY97-3906; test: MIC, microdilution in CAMHB 24 h; type: cell-based, Staphylococcus aureus; conditions: Staphylococcus aureus, SHY973906
# [15] = test system: S. aureus ATCC 43300; test: MIC, microdilution in CAMHB 24 h; type: cell-based, Staphylococcus aureus; conditions: Staphylococcus aureus, ATCC 43300 / MRSA
# [16] = test system: S. aureus ATCC BAA-41; test: MIC, microdilution in CAMHB 24 h; type: cell-based, Staphylococcus aureus; conditions: Staphylococcus aureus, ATCC BAA-41 / MRSA
# [17] = test system: S. aureus N315; test: microbe, parasite or virus in culture; type: cell-based, Staphylococcus aureus; conditions: Staphylococcus aureus, MRSA
# [18] = test system: S. aureus MA078038; test: MIC, microdilution in CAMHB 24 h; type: cell-based, Staphylococcus aureus; conditions: Staphylococcus aureus, MRSA
# [19] = test system: S. aureus Newman; test: MIC, microdilution in CAMHB 24 h; type: cell-based, Staphylococcus aureus; conditions: Staphylococcus aureus, NEWMAN
# [20] = test system: S. aureus MRSA COL; test: MIC, microdilution in CAMHB 24 h; type: cell-based, Staphylococcus aureus; conditions: Staphylococcus aureus, MRSA
# [21] = test system: S. aureus Mu50; test: MIC, microdilution in CAMHB 24 h; type: cell-based, Staphylococcus aureus; conditions: Staphylococcus aureus, MRSA / VISA
# [22] = test system: S. aureus Sa220c; test: MIC, microdilution in CAMHB 24 h; type: cell-based, Staphylococcus aureus; conditions: Staphylococcus aureus, MRSA
# [23] = test system: S. aureus Sa228c; test: MIC, microdilution in CAMHB 24 h; type: cell-based, Staphylococcus aureus; conditions: Staphylococcus aureus, MRSA
# [24] = test system: S. aureus CF1A-L; test: MIC, microdilution in CAMHB 24 h; type: cell-based, Staphylococcus aureus; conditions: Staphylococcus aureus, CF1AL
# [25] = test system: S. aureus CF2A-L; test: MIC, microdilution in CAMHB 24 h; type: cell-based; conditions: Staphylococcus aureus, CF2AL
# [26] = test system: S. aureus CF4B-L; test: MIC, microdilution in CAMHB 24 h; type: cell-based, Staphylococcus aureus; conditions: Staphylococcus aureus, CF4BL
# [27] = test system: S. aureus CF6B-L; test: MIC, microdilution in CAMHB 24 h; type: cell-based, Staphylococcus aureus; conditions: Staphylococcus aureus, CF6BL
# [28] = test system: S. aureus CF7A-L; test: MIC, microdilution in CAMHB 24 h; type: cell-based, Staphylococcus aureus; conditions: Staphylococcus aureus, MRSA
# [29] = test system: S. aureus CF8E-L; test: MIC, microdilution in CAMHB 24 h; type: cell-based, Staphylococcus aureus; conditions: Staphylococcus aureus, CF8EL
# [30] = test system: S. aureus CF9A-L; test: MIC, microdilution in CAMHB 24 h; type: cell-based, Staphylococcus aureus; conditions: Staphylococcus aureus, MRSA
# [31] = test system: S. aureus CF35A-L; test: MIC, microdilution in CAMHB 24 h; type: cell-based, Staphylococcus aureus; conditions: Staphylococcus aureus, MRSA
# [32] = test system: S. aureus CF07-L; test: MIC, microdilution in CAMHB 24 h; type: cell-based, Staphylococcus aureus; conditions: Staphylococcus aureus, CF07L
structure (smiles),measurement,setting,value
"C[C@H]1CC[C@]2(NC1)O[C@H]1C[C@H]3[C@@H]4CC[C@H]5C[C@@H](O[C@@H]6O[C@H](CO)[C@H](O[C@@H]7O[C@H](CO)[C@@H](O)[C@H](O[C@@H]8OC[C@@H](O)[C@H](O)[C@H]8O)[C@H]7O[C@@H]7O[C@H](CO)[C@@H](O)[C@H](O)[C@H]7O)[C@H](O)[C@H]6O)CC[C@]5(C)[C@H]4CC[C@]3(C)[C@H]1[C@@H]2C [Tomatine, tomatine]",MIC,[1]; ATCC 29213 + HQNO at 20 μg/ml,>16 mg/L
same,MIC,"[1]; ATCC 29213, without HQNO",>16 mg/L
same,MIC,[1]; ATCC 29213 in BHI,>16 mg/L
same,MIC,[1]; ATCC 29213 in MHBCA,>16 mg/L
same,MIC,"[2]; Newbould, normal strain",>16 mg/L
same,MIC,"[3]; NewbouldΔhemB, SCV",>16 mg/L
same,MIC,[4]; CF07-L + HQNO at 20 μg/ml,>16 mg/L
same,MIC,"[4]; CF07-L, normal strain",>16 mg/L
same,MIC,"[4]; CF07-L, without HQNO",>16 mg/L
same,MIC,[5]; CF07-S + HQNO at 20 μg/ml,>16 mg/L
same,MIC,"[5]; CF07-S, SCV",>16 mg/L
same,MIC,"[5]; CF07-S, without HQNO",>16 mg/L
same,MIC,"[6]; CF1A-L, normal strain",>16 mg/L
same,MIC,"[7]; CF1D-S, SCV",>16 mg/L
same,MIC against all SCVs,[8],no MIC was observed
"CN[C@H](CC(C)C)C(=O)N[C@H]1C(=O)N[C@@H](CC(N)=O)C(=O)N[C@H]2C(=O)N[C@H]3C(=O)N[C@H](C(=O)N[C@H](C(=O)O)c4cc(O)cc(O)c4-c4cc3ccc4O)[C@H](O)c3ccc(c(Cl)c3)Oc3cc2cc(c3O[C@@H]2O[C@H](CO)[C@@H](O)[C@H](O)[C@H]2O[C@H]2C[C@](C)(N)[C@H](O)[C@H](C)O2)Oc2ccc(cc2Cl)[C@H]1O [Vancomycin, vancomycin]",MIC,[1]; ATCC 29213 + HQNO at 20 μg/ml,2 mg/L
same,MIC,"[1]; Staphylococcus aureus, ATCC29213, ATCC 29213, without HQNO",2 mg/L
same,MIC,"[1]; Staphylococcus aureus, ATCC29213, ATCC 29213 in BHI",2 mg/L
same,MIC,"[1]; Staphylococcus aureus, ATCC29213, ATCC 29213 in MHBCA",1 to 2 mg/L
same,MIC,[2]; Staphylococcus aureus,1 mg/L
same,MIC,[3]; Staphylococcus aureus,2 mg/L
same,MIC,[4]; CF07-L + HQNO at 20 μg/ml,2 mg/L
same,MIC,"[4]; CF07-L, without HQNO",2 mg/L
same,MIC,[4]; Staphylococcus aureus,2 mg/L
same,MIC,[5]; CF07-S + HQNO at 20 μg/ml,2 mg/L
same,MIC,"[5]; CF07-S, without HQNO",2 mg/L
same,MIC,"[5]; Staphylococcus aureus, SCVCF07S",2 mg/L
same,MIC,[6]; Staphylococcus aureus,1 to 2 mg/L
same,MIC,"[7]; Staphylococcus aureus, SCVCF1DS",2 mg/L
same,MIC,[9],0.5 to 1 mg/L
same,incorporation of radiolabeled precursors into the targeted macromolecules,[10],preferentially inhibited
same,Fold (−TO/+TO),"[11]; ATCC 29213, tomatidine at 8 μg/ml",1 fold
same,MIC,[11]; ATCC29213,1 mg/L
same,MIC,"[11]; ATCC29213, read-out: MIC −TO",1 mg/L
same,MIC,[12],1 mg/L
same,MIC,[13],0.5 to 1 mg/L
same,MIC,[14],0.5 to 1 mg/L
same,MIC,[15],0.5 to 1 mg/L
same,MIC,[16],1 mg/L
same,MIC,[17],0.5 mg/L
same,MIC,[18],0.5 to 1 mg/L
same,MIC,[19],1 mg/L
same,MIC,[20],2 mg/L
same,MIC,[21],4 mg/L
same,MIC,[22],1 mg/L
same,MIC,[23],1 mg/L
same,MIC,[24],1 mg/L
same,MIC,[25],1 mg/L
same,MIC,[26],1 mg/L
same,MIC,[27],0.5 to 1 mg/L
same,MIC,[28],1 mg/L
same,MIC,[29],1 to 2 mg/L
same,MIC,[30],1 mg/L
same,MIC,[31],1 mg/L
same,MIC,[32],1 to 2 mg/L
